The experiment relates to neonatal rat ventricular myocytes (NRVMs). Briefly: Myocyte proliferation assay (EdU) in neonatal rat ventricular myocytes. The class given is cell-based. The note with it: Rattus norvegicus, Ventricular myocyte, growth relative to blank myocyte growth without compound added; for activation at 1 µM: 1 uM compound; for activation at 3 µM: 3 uM compound; for activation at 10 µM: 10 uM compound. Here is the method: 1. Isolation of and Culture Neonatal Rat Ventricular Myocytes (NRVMs)
Ventricles from neonatal rats were separated from the atria, cut into small pieces (about 2×2 mm^2) and then dissociated in Ca^2+-free HBSS containing 0.125 mg ml-1 trypsin (Gibco), 10 μg ml-1 DNase II (Sigma) and 0.1 mg ml-1 collagenase type IV (Sigma). The digestion was carried out under constant stirring at 37° C. for 5 min. The supernatant was collected with FBS (Gibco) after each digestion period. After digestion, the collected supernatant was centrifuged at 1000 g for 10 min at room temperature, and then cell pellets were resuspended in DMEM (Gibco) supplemented with 10% FBS and with 100 uM 5-bromo-2′-deoxyuridine (Sigma). The resuspended cells were passed through a cell strainer ([…], BD Falcon) and seeded onto 100-mm plastic dishes for 2 h at 37° C. in a 5% CO2 to remove fibroblasts, the supernatant was then collected and plated onto 1% gelatin (Sigma)-coated dishes. 24 h after the seeding, the medium was changed to DMEM (Gibco) containing 2% FBS (Gibco), 1% insulin-transferrin-selenium (ITS; Gibco), 1% Penicillin-Streptomycin (Gibco). After 24 hours of low serum culture, remove the medium with DMEM (Gibco) containing 6% FBS (Gibco), 1% insulin-transferrin-selenium (ITS; Gibco), 1% Penicillin-Streptomycin (Gibco), different concentrations of compounds (the compounds were pre-diluted in the medium and the drug concentration was 10 uM, 3 uM, 1 uM, fully mixed). After 36 h add Edu substrate (Invitrogen) according to the manufacturer's guidelines, and then after 12 h cell can be used.
2.1. Immobilization: Remove the medium and fix the cells with […] in 200 ul (whichever is covered) for 15 min and wash the cells twice with 500 ul of PBS for 5 min each time.
2.2. Broken membrane: Add 200 ul of 0.3% Triton-X 100 (diluted in PBS) to each well, incubate for 10-15 min at room temperature (the time should not be too long), and wash the cells twice with 500 ul of PBS for 5 min each time.
2.3. Blocking: Add 200 ul of 10% normal goat serum (diluted with 0.1% PBST) to each well, incubate for 1 h at room temperature, and wash twice with 500 ul of 0.1% PBST for 5 min each time.
2.4. Primary antibody: dilute the primary antibody (abcam, ab8295) to blocking solution at a ratio of 1:200, add 100 ul per well, incubate for 1 h at room temperature (may be slightly longer than 2-3 h), wash the cells twice with 500 ul 0.1% PBST for 5 min each time.
2.5. Secondary antibody: Dilute the fluorescently labeled secondary antibody (abcam, ab150117) into blocking solution at a ratio of 1:200, add 100 ul per well, incubate for 1 h at room temperature (the time should not be too long), wash the cells twice with 0.1% PBST for 5 min each time, pay attention to the whole process. Protected from light.
2.6. Edu staining (Invitrogen C10338)
2.6.1 Prepare Click-iT® reaction cocktail according to Table 3. It was important to add the ingredients in the order listed in the table; otherwise, the reaction would not proceed optimally. Use the Click-iT® reaction cocktail within 15 minutes of preparation.
2.6.2 Add 0.1 mL of Click-iT® reaction cocktail to each well containing a coverslip. Rock the plate briefly to ensure that the reaction cocktail is distributed evenly over the coverslip.
2.6.3 Incubate the plate for 30 minutes at room temperature, protected from light.
2.6.4 Remove the reaction cocktail, then wash the cells twice with 0.1% PBST for 5 min each time.
2.7. DAPI staining: DAPI stain was diluted to PBS at a ratio of 1:1000, 100 ul per well, incubated for 30 min at room temperature, and the cells were washed twice with PBS for 5 min each.
We used Molecular Devices' Image Xpress Micro Confocal for high-throughput photo and data analysis.

The structures appear in SMILES notation.

As to `O=C1NC(NCC2CC2)=N/C1=C\c1ccc2c(c1)OCO2` [TJU-B029, (4Z)-4-[(2H-1,3-benzodioxol-5-yl)methylidene]-2-[(cyclopropylmethyl)amino]-4,5-dihydro-1H-imidazol-5-one], the activation at 1 µM was less than 10%, the activation at 3 µM is less than 10% and the activation at 10 µM was 10 to 50%.
Turning to `CNC1=N/C(=C\c2ccc3c(c2)OCO3)C(=O)N1` [TJU-B033, (4Z)-4-[(2H-1,3-benzodioxol-5-yl)methylidene]-2-(methylamino)-4,5-dihydro-1H-imidazol-5-one], the activation at 1 µM was less than 10%, the activation at 3 µM was less than 10% and the activation at 10 µM lay in the range of 10 to 50%.
In turn, `O=C1NC(Nc2ccccc2)=N/C1=C\c1ccc2c(c1)OCCO2` [TJU-B007, (4Z)-4-[(2,3-dihydro-1,4-benzodioxin-6-yl)methylidene]-2-(phenylamino)-4,5-dihydro-1H-imidazol-5-one] registered an activation at 1 µM of less than 10%, an activation at 3 µM of 10 to 50% and an activation at 10 µM of more than 50%.
For `CN1C(=O)/C(=C/c2ccc3c(c2)OCO3)N=C1Nc1ccc2c(c1)OCO2` [TJU-B088, (4Z)-2-[(2H-1,3-benzodioxol-5-yl)amino]-4-[(2H-1,3-benzodioxol-5-yl)methylidene]-1-methyl-4,5-dihydro-1H-imidazol-5-one], the activation at 1 µM was in the range of 10 to 50%, the activation at 3 µM is less than 10% and the activation at 10 µM is less than 10%.
The compound `COc1ccc(/C=C2\N=C(N)N(C)C2=O)cc1OC` [TJU-B070, (4Z)-2-amino-4-[(3,4-dimethoxyphenyl)methylidene]-1-methyl-4,5-dihydro-1H-imidazol-5-one] had an activation at 1 µM of less than 10%, an activation at 3 µM of less than 10% and an activation at 10 µM of less than 10%.
The compound `Cc1ccc(NC2=N/C(=C\c3ccc4c(c3)OCO4)C(=O)N2)cc1` [TJU-B110, (4Z)-4-[(2H-1,3-benzodioxol-5-yl)methylidene]-2-[(4-methylphenyl)amino]-4,5-dihydro-1H-imidazol-5-one] gave an activation at 1 µM of 10 to 50%, an activation at 3 µM of less than 10% and an activation at 10 µM of less than 10%.
For `O=C1NC(Nc2ccccc2)=N/C1=C\c1ccc2c(c1)OCO2` [TJU-B043, (4Z)-4-[(2H-1,3-benzodioxol-5-yl)methylidene]-2-(phenylamino)-4,5-dihydro-1H-imidazol-5-one], the activation at 1 µM fell in the range of 10 to 50%, the activation at 3 µM was 10 to 50% and the activation at 10 µM lay in the range of 10 to 50%.
In turn, `O=C1NC(C2CC2)=N/C1=C\c1ccc2c(c1)OCO2` [TJU-B059, (4Z)-4-[(2H-1,3-benzodioxol-5-yl)methylidene]-2-cyclopropyl-4,5-dihydro-1H-imidazol-5-one] showed an activation at 1 µM of less than 10%, an activation at 3 µM of less than 10% and an activation at 10 µM of less than 10%.
Take `COc1ccc(NC2=N/C(=C\c3ccc4c(c3)OCCO4)C(=O)N2)cc1` [TJU-B006, (4Z)-4-[(2,3-dihydro-1,4-benzodioxin-6-yl)methylidene]-2-[(4-methoxyphenyl)amino]-4,5-dihydro-1H-imidazol-5-one]: the activation at 1 µM was 10 to 50%, the activation at 3 µM lay within 10 to 50% and the activation at 10 µM is more than 50%.
With `CN1C(=O)/C(=C/c2ccc(F)cc2)N=C1N` [TJU-B050, (4Z)-2-amino-4-[(4-fluorophenyl)methylidene]-1-methyl-4,5-dihydro-1H-imidazol-5-one], the activation at 1 µM is less than 10%, the activation at 3 µM is less than 10% and the activation at 10 µM lay in the range of 10 to 50%.
The compound `O=C1NC(Nc2ccccc2)=NC1Cc1ccc2c(c1)OCO2` (centres unmarked) [TJU-B005, 4-[(2H-1,3-benzodioxol-5-yl)methyl]-2-(phenylamino)-4,5-dihydro-1H-imidazol-5-one] yielded an activation at 1 µM of 10 to 50%, an activation at 3 µM of less than 10% and an activation at 10 µM of more than 50%.
The compound `O=C1NC(c2ccccc2)=N/C1=C\c1ccc2c(c1)OCO2` [TJU-B039, (4Z)-4-[(2H-1,3-benzodioxol-5-yl)methylidene]-2-phenyl-4,5-dihydro-1H-imidazol-5-one] came in with an activation at 1 µM of less than 10% and an activation at 10 µM of 10 to 50%.
Consider `CN1C(=O)/C(=C/c2ccccc2)N=C1N` [TJU-B045, (4Z)-2-amino-1-methyl-4-(phenylmethylidene)-4,5-dihydro-1H-imidazol-5-one], for which the activation at 1 µM was less than 10%, the activation at 3 µM is less than 10% and the activation at 10 µM was in the range of 10 to 50%.
Turning to `O=C1NC(NCc2ccccc2)=N/C1=C\c1ccc2c(c1)OCO2` [TJU-B019, (4Z)-4-[(2H-1,3-benzodioxol-5-yl)methylidene]-2-(benzylamino)-4,5-dihydro-1H-imidazol-5-one], the activation at 1 µM is less than 10%, the activation at 3 µM is less than 10% and the activation at 10 µM was more than 50%.
In turn, `COc1ccccc1NC1=N/C(=C\c2ccc3c(c2)OCO3)C(=O)N1` [TJU-B254, (4Z)-4-[(2H-1,3-benzodioxol-5-yl)methylidene]-2-[(2-methoxyphenyl)amino]-4,5-dihydro-1H-imidazol-5-one] registered an activation at 1 µM of less than 10%, an activation at 3 µM of less than 10% and an activation at 10 µM of less than 10%.
In turn, `CN1C(=O)/C(=C/c2cccc(Cl)c2)N=C1N` [TJU-B056, (4Z)-2-amino-4-[(3-chlorophenyl)methylidene]-1-methyl-4,5-dihydro-1H-imidazol-5-one] gave an activation at 1 µM of less than 10%, an activation at 3 µM of less than 10% and an activation at 10 µM of less than 10%.
As to `COc1cc(/C=C2\N=C(Nc3ccccc3)NC2=O)cc2c1OCO2` [TJU-B051, (4Z)-4-[(7-methoxy-2H-1,3-benzodioxol-5-yl)methylidene]-2-(phenylamino)-4,5-dihydro-1H-imidazol-5-one], the activation at 1 µM was less than 10%, the activation at 3 µM is less than 10% and the activation at 10 µM fell in the range of 10 to 50%.
With `COc1cc(/C=C2\N=C(N)NC2=O)cc2c1OCO2` [TJU-B065, (4Z)-2-amino-4-[(7-methoxy-2H-1,3-benzodioxol-5-yl)methylidene]-4,5-dihydro-1H-imidazol-5-one], the activation at 1 µM was less than 10%, the activation at 3 µM was less than 10% and the activation at 10 µM was less than 10%.
For `CN1C(=O)/C(=C/c2ccc3c(c2)OCO3)N=C1Nc1ccccc1` [TJU-B014, (4Z)-4-[(2H-1,3-benzodioxol-5-yl)methylidene]-1-methyl-2-(phenylamino)-4,5-dihydro-1H-imidazol-5-one], the activation at 1 µM is less than 10%, the activation at 3 µM fell in the range of 10 to 50% and the activation at 10 µM is more than 50%.
The matching figures for `CN1C(=O)/C(=C/c2ccc3c(c2)OCO3)N=C1N` [TJU-B057, (4Z)-2-amino-4-[(2H-1,3-benzodioxol-5-yl)methylidene]-1-methyl-4,5-dihydro-1H-imidazol-5-one]: 10 to 50%, less than 10% and less than 10%.
The matching figures for `O=C1NC(NCCN2CCOCC2)=N/C1=C\c1ccc2c(c1)OCCO2` [TJU-B026, (4Z)-4-[(2,3-dihydro-1,4-benzodioxin-6-yl)methylidene]-2-{[2-(morpholin-4-yl)ethyl]amino}-4,5-dihydro-1H-imidazol-5-one]: 10 to 50%, less than 10% and more than 50%.

(Values after patent US12594261B2, “Use of heterocyclic derivatives with cardiomyocyte proliferation activity for treatment of heart diseases” (SHANGHAI EAST HOSPITAL (EAST HOSPITAL, TONGJI UNIVERSITY …, priority 2019, dated 2026).)
